Assay [1] deals with PikC-RhFRED. In words: Spectral substrate binding assay, PikC-RhFRED. The following applies: Type I difference spectra, 1 μM P450, room temperature; read-out: Kd (dissociation constant). More on the design: species or system Streptomyces venezuelae. How it is done: (§1) Spectral substrate binding assays were performed using a UV-visible spectrophotometer 300 Bio (Cary) at room temperature by titrating 30 mM substrate DMSO solution (blank DMSO for reference group) into 1 ml of 1 μM P450 sample in 1 μl aliquots, leading to substrate concentration ranging from 30 to 360 μM. The series of Type I difference spectra were used to deduce ΔA (Apeak(389)−Atrough(424)). Then, the data were fit to Michaelis-Menten equation to obtain the dissociation constant Kd. As mentioned above, one benefit of the fusion protein arrangement is the facility of the covalent linkage to stabilize productive interactions between the P450 and redox partner, thus enhancing electron transfer efficiency. […] To test whether this also applies to PikC-RhFRED, we first determined the substrate binding affinity of YC-17 and narbomycin toward both PikC and PikC-RhFRED.

Assay [2] deals with wt-PikC (Streptomyces venezuelae, UniProt O87605). Put plainly: Spectral substrate binding assay, wt-PikC. The following applies: Type I difference spectra, 1 μM P450, room temperature; read-out: Kd (dissociation constant). How it is done: as §1
The test system of assay [3] is PikC-RhFRED. In words: Steady-state kinetics, substrate consumption by HPLC, PikC-RhFRED. The following applies: kcat/Km of PikC-RhFRED relative to wt-PikC with Fdr and Fdx. Format: biochemical, Streptomyces venezuelae. The protocol: Subsequently, the kinetic parameters of PikC-RhFRED were compared with those of the PikC-Fdr-Fdx three component system. […] Moreover, the solubility limitation (less than 500 μM) of macrolides in aqueous solution prevented us from deducing the K, value. Therefore, the apparent specificity constants (kcat/Km) were determined by fitting the low-concentration data to the linear region of a Michaelis-Menten curve. […] In contrast, the specificity constants of wt-PikC partnered by Fdr and Fdx were 0.24 μM^−1·min^−1 for YC-17 and 0.31 μM^−1·min^−1 for narbomycin. It is evident that the fusion enhanced the catalytic activity approximately 4 fold for both YC-17 and narbomycin. […] The presumed de-coupling between electron transfer and hydroxylation may account for this difference.
The standard reaction contains 100 nM of PikC-RhFRED (or 150 nM of wt-PikC with 3.5 μM spinach ferredoxin and 0.1 U/ml spinach ferredoxin-NADP^+ reductase), 20˜250 μM substrate in 200 μl of desalting buffer (50 mM NaH2PO4, pH 7.3, 1 mM EDTA, 0.2 mM DTE, 10% glycerol). After pre-incubation at 30° C. for 5 min, the reaction was initiated by adding 1 μl of 50 mM NADPH and 50 μl aliquots were taken at 0 s, 20 s, and 40 s (or Os, 30 s, and 60 s when substrate concentration greater than 100 μM) to thoroughly mix with 2×100 μl of chloroform. […]

Sequence of wt-PikC (O87605 whole entry): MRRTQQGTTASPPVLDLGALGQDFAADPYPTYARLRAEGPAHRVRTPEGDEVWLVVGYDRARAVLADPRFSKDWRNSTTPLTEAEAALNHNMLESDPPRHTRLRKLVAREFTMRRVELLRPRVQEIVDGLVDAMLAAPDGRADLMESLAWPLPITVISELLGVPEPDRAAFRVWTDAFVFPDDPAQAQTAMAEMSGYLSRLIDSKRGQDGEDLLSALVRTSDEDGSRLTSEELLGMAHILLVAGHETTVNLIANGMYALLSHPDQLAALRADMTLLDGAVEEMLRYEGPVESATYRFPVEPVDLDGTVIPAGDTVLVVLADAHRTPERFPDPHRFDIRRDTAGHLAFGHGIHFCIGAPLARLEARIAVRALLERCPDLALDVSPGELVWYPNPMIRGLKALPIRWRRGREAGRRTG

Usually Kd stands for the concentration at which binding is half-saturated. On to `CC[C@H]1OC(=O)[C@H](C)[C@@H](O[C@@H]2O[C@H](C)C[C@H](N(C)C)[C@H]2O)[C@@H](C)C[C@@H](C)C(=O)/C=C/[C@H]1C` [YC-17], for which the Kd in assay [1] was found to be 92.6 ± 0.5 µM; in assay [2], 113 ± 1.9 µM. Moreover, in assay [3], the “enhancement of catalytic activity by fusion (PikC-RhFRED vs wt-PikC)” value was “approximately 4 fold”.
With `CC[C@H]1OC(=O)[C@H](C)C(=O)[C@H](C)[C@@H](O[C@@H]2O[C@H](C)C[C@H](N(C)C)[C@H]2O)[C@@H](C)C[C@@H](C)C(=O)/C=C/[C@H]1C` [narbomycin], the Kd in assay [1] worked out at 215 ± 4.2 µM; in assay [2] it was 288 ± 7.1 µM. In addition, in assay [3], the “enhancement of catalytic activity by fusion (PikC-RhFRED vs wt-PikC)” value is “approximately 4 fold”.

The record behind these values is US20090081758A1, “Chimeric Cytochrome P450 Proteins and Methods of Use” (THE REGENTS OF THE UNIVERSITY OF MICHIGAN, priority 2007, published 2009).
